In patent US20210238176A1, “PESTICIDALLY-ACTIVE BICYCLIC HETEROAROMATIC COMPOUNDS” (SYNGENTA CROP PROTECTION AG, priority 2018, published 2021):

Experiments:
Type in all cases: in vivo
[1] = test system: Myzus persicae (Green Peach Aphid); assay: Myzus persicae intrinsic activity, sucrose solution under Parafilm; details: 120 h, test rate 12 ppm, 5 days after infestation
Source text: Myzus persicae (Green Peach Aphid). Intrinsic Activity
Test compounds prepared from 10,000 ppm DMSO stock solutions were applied by pipette into 24-well microtiter plates and mixed with sucrose solution. The plates were closed with a stretched Parafilm. A plastic stencil with 24 holes was placed onto the plate and infested pea seedlings were placed directly on the Parafilm. The infested plate was closed with a gel blotting paper and another plastic stencil and then turned upside down. The samples were assessed for mortality 5 days after infestation.

[2] = test system: Myzus persicae (Green Peach Aphid); assay: Myzus persicae (green peach aphid) feeding/contact activity, sunflower leaf discs; details: foliar, 144 h, application rate 200 ppm, aphid population of mixed ages, 6 days after infestation
Experimental: Myzus persicae (Green Peach Aphid): Feeding/Contact Activity
Sunflower leaf discs were placed onto agar in a 24-well microtiter plate and sprayed with aqueous test solutions prepared from 10,000 ppm DMSO stock solutions. After drying, the leaf discs were infested with an aphid population of mixed ages. The samples were assessed for mortality 6 days after infestation.

[3] = test system: Myzus persicae (Green Peach Aphid); assay: Myzus persicae systemic activity, pea seedling roots in test solution; details: 144 h, test rate 24 ppm, systemic via pea seedling roots, 6 days
Experimental: Myzus persicae (Green Peach Aphid). Systemic Activity
Roots of pea seedlings infested with an aphid population of mixed ages were placed directly into aqueous test solutions prepared from 10,000 ppm DMSO stock solutions. The samples were assessed for mortality 6 days after placing seedlings into test solutions.

O=c1nc2n(Cc3ccc(Cl)nc3)cccc-2n1-c1cccc(-c2ccccc2)c1 [Compound A1, 4-[(6-chloro-3-pyridyl)methyl]-1-(3-phenylphenyl)imidazo[4,5-b]pyridin-2-one]
mortality at 12 ppm [1]: ≥ 80%
mortality at 200 ppm [2]: ≥ 80%

O=c1nc2n(Cc3ccc(Cl)nc3)cccc-2n1-c1cnn(-c2ccccc2)c1 [Compound A5, 4-[(6-chloro-3-pyridyl)methyl]-1-(1-phenylpyrazol-4-yl)imidazo[4,5-b]pyridin-2-one]
mortality at 12 ppm [1]: ≥ 80%
mortality at 200 ppm [2]: ≥ 80%

O=c1nc2n(Cc3ccc(Cl)nc3)cccc-2n1-c1cccc(Cl)c1 [Compound A6, 1-(3-chlorophenyl)-4-[(6-chloro-3-pyridyl)methyl]imidazo[4,5-b]pyridin-2-one]
mortality at 12 ppm [1]: ≥ 80%
mortality at 200 ppm [2]: ≥ 80%

COc1cccc(-n2c3cccn(Cc4ccc(Cl)nc4)c-3nc2=O)c1 [Compound A7, 4-[(6-chloro-3-pyridyl)methyl]-1-(3-methoxyphenyl)imidazo[4,5-b]pyridin-2-one]
mortality at 12 ppm [1]: ≥ 80%
mortality at 200 ppm [2]: ≥ 80%

COc1ccc(-n2c3cccn(Cc4ccc(Cl)nc4)c-3nc2=O)cc1 [Compound A8, 4-[(6-chloro-3-pyridyl)methyl]-1-(4-methoxyphenyl)imidazo[4,5-b]pyridin-2-one]
mortality at 12 ppm [1]: ≥ 80%
mortality at 200 ppm [2]: ≥ 80%

O=c1nc2n(Cc3ccc(Cl)nc3)cccc-2n1-c1ccc(Cl)cc1 [Compound A9, 1-(4-chlorophenyl)-4-[(6-chloro-3-pyridyl)methyl]imidazo[4,5-b]pyridin-2-one]
mortality at 12 ppm [1]: ≥ 80%
mortality at 200 ppm [2]: ≥ 80%

N#Cc1ccc(-n2c3cccn(Cc4ccc(Cl)nc4)c-3nc2=O)cc1 [Compound A10, 4-[4-[(6-chloro-3-pyridyl)methyl]-2-oxo-imidazo[4,5-b]pyridin-1-yl]benzonitrile]
mortality at 12 ppm [1]: ≥ 80%
mortality at 200 ppm [2]: ≥ 80%

N#Cc1cccc(-n2c3cccn(Cc4ccc(Cl)nc4)c-3nc2=O)c1 [Compound A11, 3-[4-[(6-chloro-3-pyridyl)methyl]-2-oxo-imidazo[4,5-b]pyridin-1-yl]benzonitrile]
mortality at 12 ppm [1]: ≥ 80%
mortality at 200 ppm [2]: ≥ 80%

O=c1nc2n(Cc3ccc(Cl)nc3)cccc-2n1-c1ccnc(C(F)(F)F)c1 [Compound A14, 4-[(6-chloro-3-pyridyl)methyl]-1-[2-(trifluoromethyl)-4-pyridyl]imidazo[4,5-b]pyridin-2-one]
mortality at 12 ppm [1]: ≥ 80%
mortality at 200 ppm [2]: ≥ 80%

O=c1nc2n(Cc3ccc(Cl)nc3)cccc-2n1-c1cncnc1 [Compound A16, 4-[(6-chloro-3-pyridyl)methyl]-1-pyrimidin-5-yl-imidazo[4,5-b]pyridin-2-one]
mortality at 12 ppm [1]: ≥ 80%
mortality at 24 ppm [3]: ≥ 80%

O=c1nc2n(Cc3ccc(Cl)nc3)cccc-2n1-c1cc(C(F)F)ccn1 [Compound A19, 4-[(6-chloro-3-pyridyl)methyl]-1-[4-(difluoromethyl)-2-pyridyl]imidazo[4,5-b]pyridin-2-one]
mortality at 12 ppm [1]: ≥ 80%

O=c1nc2n(Cc3ccc(Cl)nc3)cccc-2n1-c1cccc(C(F)(F)F)c1 [Compound A21, 4-[(6-chloro-3-pyridyl)methyl]-1-[3-(trifluoromethyl)phenyl]imidazo[4,5-b]pyridin-2-one]
mortality at 12 ppm [1]: ≥ 80%
mortality at 200 ppm [2]: ≥ 80%

O=c1nc2n(Cc3ccc(Cl)nc3)cccc-2n1-c1cncc(Cl)c1 [Compound A22, 1-(5-chloro-3-pyridyl)-4-[(6-chloro-3-pyridyl)methyl]imidazo[4,5-b]pyridin-2-one]
mortality at 12 ppm [1]: ≥ 80%
mortality at 24 ppm [3]: ≥ 80%

O=c1nc2n(Cc3ccc(Cl)nc3)cccc-2n1-c1ncccn1 [Compound A23, 4-[(6-chloro-3-pyridyl)methyl]-1-pyrimidin-2-yl-imidazo[4,5-b]pyridin-2-one]
mortality at 200 ppm [2]: ≥ 80%

O=c1nc2n(Cc3ccc(Cl)nc3)cccc-2n1-c1ccc(C(F)(F)F)nc1 [Compound A24, 4-[(6-chloro-3-pyridyl)methyl]-1-[6-(trifluoromethyl)-3-pyridyl]imidazo[4,5-b]pyridin-2-one]
mortality at 12 ppm [1]: ≥ 80%
mortality at 24 ppm [3]: ≥ 80%

O=c1nc2n(Cc3ccc(Cl)nc3)cccc-2n1-c1cncc(C(F)(F)F)c1 [Compound A25, 4-[(6-chloro-3-pyridyl)methyl]-1-[5-(trifluoromethyl)-3-pyridyl]imidazo[4,5-b]pyridin-2-one]
mortality at 12 ppm [1]: ≥ 80%
mortality at 200 ppm [2]: ≥ 80%
mortality at 24 ppm [3]: ≥ 80%

O=c1nc2n(Cc3ccc(Cl)nc3)cccc-2n1-c1ccccn1 [Compound A27, 4-[(6-chloro-3-pyridyl)methyl]-1-(2-pyridyl)imidazo[4,5-b]pyridin-2-one]
mortality at 12 ppm [1]: ≥ 80%
mortality at 24 ppm [3]: ≥ 80%

Cc1cccc(-n2c3cccn(Cc4ccc(Cl)nc4)c-3nc2=O)c1 [Compound A29, 4-[(6-chloro-3-pyridyl)methyl]-1-(m-tolyl)imidazo[4,5-b]pyridin-2-one]
mortality at 12 ppm [1]: ≥ 80%
mortality at 200 ppm [2]: ≥ 80%

O=c1nc2n(Cc3ccc(Cl)nc3)cccc-2n1-c1ccc(F)cc1 [Compound A32, 4-[(6-chloro-3-pyridyl)methyl]-1-(4-fluorophenyl)imidazo[4,5-b]pyridin-2-one]
mortality at 12 ppm [1]: ≥ 80%
mortality at 200 ppm [2]: ≥ 80%
mortality at 24 ppm [3]: ≥ 80%

O=c1nc2n(Cc3cnc(Cl)s3)cccc-2n1-c1ccccc1 [Compound A36, 4-[(2-chlorothiazol-5-yl)methyl]-1-phenyl-imidazo[4,5-b]pyridin-2-one]
mortality at 12 ppm [1]: ≥ 80%
mortality at 200 ppm [2]: ≥ 80%

O=c1nc2n(Cc3ccc(Cl)nc3)cccc-2n1-c1ccccc1Cl [Compound A38, 1-(2-chlorophenyl)-4-[(6-chloro-3-pyridyl)methyl]imidazo[4,5-b]pyridin-2-one]
mortality at 12 ppm [1]: ≥ 80%
mortality at 200 ppm [2]: ≥ 80%

O=c1nc2n(Cc3ccc(Cl)nc3)cccc-2n1-c1ccc(Cl)cc1Cl [Compound A41, 4-[(6-chloro-3-pyridyl)methyl]-1-(2,4-dichlorophenyl)imidazo[4,5-b]pyridin-2-one]
mortality at 12 ppm [1]: ≥ 80%

O=c1nc2n(Cc3ccc(Cl)nc3)cccc-2n1-c1nccnc1C(F)(F)F [Compound A42, 4-[(6-chloro-3-pyridyl)methyl]-1-[3-(trifluoromethyl)pyrazin-2-yl]imidazo[4,5-b]pyridin-2-one]
mortality at 12 ppm [1]: ≥ 80%
mortality at 200 ppm [2]: ≥ 80%

O=c1nc2n(Cc3ccc(Cl)nc3)cccc-2n1-c1ccsc1 [Compound A47, 4-[(6-chloro-3-pyridyl)methyl]-1-(3-thienyl)imidazo[4,5-b]pyridin-2-one]
mortality at 12 ppm [1]: ≥ 80%

Cc1ccc(C)c(-n2c3cccn(Cc4ccc(Cl)nc4)c-3nc2=O)c1 [Compound A51, 4-[(6-chloro-3-pyridyl)methyl]-1-(2,5-dimethylphenyl)imidazo[4,5-b]pyridin-2-one]
mortality at 12 ppm [1]: ≥ 80%

Cc1ccc(-n2c3cccn(Cc4ccc(Cl)nc4)c-3nc2=O)s1 [Compound A67, 4-[(6-chloro-3-pyridyl)methyl]-1-(5-methyl-2-thienyl)imidazo[4,5-b]pyridin-2-one]
mortality at 12 ppm [1]: ≥ 80%
mortality at 200 ppm [2]: ≥ 80%

O=c1nc2n(Cc3ccc(Cl)nc3)cccc-2n1-c1csc(C(F)F)c1 [Compound A68, 4-[(6-chloro-3-pyridyl)methyl]-1-[5-(difluoromethyl)-3-thienyl]imidazo[4,5-b]pyridin-2-one]
mortality at 12 ppm [1]: ≥ 80%

O=c1nc2n(Cc3ccc(Cl)nc3)cccc-2n1-c1csc(C(F)(F)F)c1 [Compound A71, 4-[(6-chloro-3-pyridyl)methyl]-1-[5-(trifluoromethyl)-3-thienyl]imidazo[4,5-b]pyridin-2-one]
mortality at 12 ppm [1]: ≥ 80%

O=c1nc2n(Cc3ccc(Cl)nc3)cccc-2n1-c1cc(F)cs1 [Compound A73, 4-[(6-chloro-3-pyridyl)methyl]-1-(4-fluoro-2-thienyl)imidazo[4,5-b]pyridin-2-one]
mortality at 12 ppm [1]: ≥ 80%

COC(=O)c1ccc(-n2c3cccn(Cc4ccc(Cl)nc4)c-3nc2=O)o1 [Compound A77, methyl 5-[4-[(6-chloro-3-pyridyl)methyl]-2-oxo-imidazo[4,5-b]pyridin-1-yl]furan-2-carboxylate]
mortality at 12 ppm [1]: ≥ 80%

O=c1nc2n(Cc3ccc(Cl)nc3)cccc-2n1-c1nnc(C2CC2)o1 [Compound A79, 4-[(6-chloro-3-pyridyl)methyl]-1-(5-cyclopropyl-1,3,4-oxadiazol-2-yl)imidazo[4,5-b]pyridin-2-one]
mortality at 12 ppm [1]: ≥ 80%
mortality at 200 ppm [2]: ≥ 80%

O=c1nc2n(Cc3ccc(Cl)nc3)cccc-2n1-c1ccccc1C(F)(F)F [Compound A81, 4-[(6-chloro-3-pyridyl)methyl]-1-[2-(trifluoromethyl)phenyl]imidazo[4,5-b]pyridin-2-one]
mortality at 12 ppm [1]: ≥ 80%
mortality at 200 ppm [2]: ≥ 80%

O=c1nc2n(Cc3ccc(Cl)nc3)cccc-2n1-c1cnn(C2COC2)c1 [Compound A87, 4-[(6-chloro-3-pyridyl)methyl]-1-[1-(oxetan-3-yl)pyrazol-4-yl]imidazo[4,5-b]pyridin-2-one]
mortality at 200 ppm [2]: ≥ 80%

CCn1nccc1-n1c2cccn(Cc3ccc(Cl)nc3)c-2nc1=O [Compound A89, 4-[(6-chloro-3-pyridyl)methyl]-1-(2-ethylpyrazol-3-yl)imidazo[4,5-b]pyridin-2-one]
mortality at 12 ppm [1]: ≥ 80%
